According to ChEMBL document CHEMBL5143655, “Synthesis and biological evaluation of 1,2,4-triazole derivatives as potential Nrf2 activators for the treatment of cerebral ischemic injury” (Eur J Med Chem, 2022):
Active and inactive are the calls of the source. The rule behind the calls is not given here.

Key:
PC-12 [1] = assay: Neuroprotective activity against SNP induced rat PC-12 cells assessed as increase in cell viability at 5 uM preincubated for 2 hrs followed by SNP stimulation for 24 hrs by MTT assay relative to control; format: functional
[2] = Metabolic stability in human plasma assessed as parent compound remaining at 200 uM measured after 60 min by LC-MS/MS analysis relative to control; format: ADME, cell-free; details: read-out: Stability
[3] = Metabolic stability in human plasma assessed as parent compound remaining at 200 uM measured after 90 min by LC-MS/MS analysis relative to control; format: ADME, cell-free; details: read-out: Stability
[4] = Metabolic stability in human plasma assessed as parent compound remaining at 200 uM measured after 120 min by LC-MS/MS analysis relative to control; format: ADME, cell-free; details: read-out: Stability
[5] = Acute toxicity in BALB/c mouse assessed as survival rate at 550 mg/kg, ip measured after 7 days; format: organism-based; details: in vivo, 168 h, time 7 day
[6] = Tmax in Sprague-Dawley rat at 5 mg/kg, ip measured upto 24 hrs by LC-MS/MS analysis; format: ADME, organism-based; details: in vivo
[7] = AUC (0 to infinity) in Sprague-Dawley rat at 5 mg/kg, iv measured upto 24 hrs by LC-MS/MS analysis; format: ADME, organism-based; design: dose 5 mg/kg, time < 24 hrs, route iv; details: in vivo
[8] = Bioavailability in Sprague-Dawley rat at 5 mg/kg, ip measured upto 24 hrs by LC-MS/MS analysis; format: ADME, organism-based; details: in vivo
[9] = Half life in Sprague-Dawley rat at 5 mg/kg, ip measured upto 24 hrs by LC-MS/MS analysis; format: ADME, organism-based; details: in vivo
[10] = Half life in Sprague-Dawley rat at 5 mg/kg, iv measured upto 24 hrs by LC-MS/MS analysis; format: ADME, organism-based; details: in vivo
[11] = Clearence in Sprague-Dawley rat at 5 mg/kg, ip measured upto 24 hrs by LC-MS/MS analysis; format: ADME, organism-based; details: in vivo
[12] = Clearence in Sprague-Dawley rat at 5 mg/kg, iv measured upto 24 hrs by LC-MS/MS analysis; format: ADME, organism-based; details: in vivo
Rattus norvegicus [13] = assay: Neuroprotective activity in Sprague-Dawley rat model of middle cerebral artery occlusion-induced ischemia-reperfusion injury assessed as decrease in neurological score at 3 mg/kg, ip preincubated for 1 hrs followed by MCAO operation and further incubated with compound for 4 hrs after reperfusion; format: functional; details: time 5 hrs
Rattus norvegicus [14] = assay: Neuroprotective activity in Sprague-Dawley rat model of middle cerebral artery occlusion-induced ischemia-reperfusion injury assessed as attenuation of behavioral deficit at 10 mg/kg, ip preincubated for 1 hrs followed by MCAO operation and further incubated with compound for 4 hrs after reperfusion; format: functional; details: time 5 hrs
Rattus norvegicus [15] = assay: Neuroprotective activity in Sprague-Dawley rat model of middle cerebral artery occlusion-induced ischemia-reperfusion injury assessed as decrease in cerebral infarct volume at 3 mg/kg, ip preincubated for 1 hrs followed by MCAO operation and further incubated with compound for 4 hrs after reperfusion by TTC staining based assay; format: functional; design: scale not given: the % may be the effect or the level left; details: time 5 hrs
Rattus norvegicus [16] = assay: Neuroprotective activity in Sprague-Dawley rat model of middle cerebral artery occlusion-induced ischemia-reperfusion injury assessed as decrease in cerebral infarct volume at 10 mg/kg, ip preincubated for 1 hrs followed by MCAO operation and further incubated with compound for 4 hrs after reperfusion by TTC staining based assay; format: functional; design: scale not given: the % may be the effect or the level left; details: time 5 hrs
Rattus norvegicus [17] = assay: Neuroprotective activity in Sprague-Dawley rat model of middle cerebral artery occlusion-induced ischemia-reperfusion injury assessed as decrease in cerebral infarct volume at 30 mg/kg, ip preincubated for 1 hrs followed by MCAO operation and further incubated with compound for 4 hrs after reperfusion by TTC staining based assay; format: functional; design: scale not given: the % may be the effect or the level left; details: time 5 hrs
Rattus norvegicus [18] = assay: Neuroprotective activity in Sprague-Dawley rat model of middle cerebral artery occlusion-induced ischemia reperfusion injury assessed as increase in serum SOD level at 3 to 30 mg/kg, ip preincubated for 1 hrs followed by MCAO operation and further incubated with compound for 4 hrs after reperfusion; format: functional, organism-based; details: dose 3-30 mg/kg, time 5.0 hrs
PC-12 [19] = assay: Neuroprotective activity against SNP-induced apoptotic rat PC-12 cells assessed as restoration of cell morphology at 10 uM preincubated for 2 hrs followed by SNP stimulation for 24 hrs by Hoechst 33258 staining based fluorescence microscopic analysis; format: functional
PC-12 [20] = assay: Neuroprotective activity against SNP-induced apoptotic rat PC-12 cells assessed as reduction in nuclear shrinkage by measuring the decrease in blue fluorescence signal at 10 uM preincubated for 2 hrs followed by SNP stimulation for 24 hrs by Hoechst 33258 staining based fluorescence microscopic analysis; format: functional, cell-based
PC-12 [21] = assay: Neuroprotective activity against SNP-induced oxidative stress in rat PC-12 cells assessed as inhibition of ROS accumulation at 10 uM preincubated for 2 hrs followed by SNP stimulation for 24 hrs by DCFH-DA staining based fluorescence microscopic analysis; format: functional, cell-based
PC-12 [22] = assay: Cytoprotective activity against SNP - induced oxidative stress in rat PC-12 cells assessed as restoration of mitochondrial membrane potential at 10 uM preincubated for 2 hrs followed by SNP stimulation for 24 hrs by JC-1 staining based fluorescence microscopic analysis; format: functional, cell-based
[23] = target: T1, Nuclear factor erythroid 2-related factor 2 (Rattus norvegicus) (UniProt O54968); assay: Activation of Nrf2 pathway in rat PC-12 cells assessed as Nrf2 accumulation in nucleus measured after 3 hrs by Western blot analysis; format: cell-based; details: filed as activator, dose 2.5-10 µM, DDE = dose-dependent effect
T1 sequence (whole entry): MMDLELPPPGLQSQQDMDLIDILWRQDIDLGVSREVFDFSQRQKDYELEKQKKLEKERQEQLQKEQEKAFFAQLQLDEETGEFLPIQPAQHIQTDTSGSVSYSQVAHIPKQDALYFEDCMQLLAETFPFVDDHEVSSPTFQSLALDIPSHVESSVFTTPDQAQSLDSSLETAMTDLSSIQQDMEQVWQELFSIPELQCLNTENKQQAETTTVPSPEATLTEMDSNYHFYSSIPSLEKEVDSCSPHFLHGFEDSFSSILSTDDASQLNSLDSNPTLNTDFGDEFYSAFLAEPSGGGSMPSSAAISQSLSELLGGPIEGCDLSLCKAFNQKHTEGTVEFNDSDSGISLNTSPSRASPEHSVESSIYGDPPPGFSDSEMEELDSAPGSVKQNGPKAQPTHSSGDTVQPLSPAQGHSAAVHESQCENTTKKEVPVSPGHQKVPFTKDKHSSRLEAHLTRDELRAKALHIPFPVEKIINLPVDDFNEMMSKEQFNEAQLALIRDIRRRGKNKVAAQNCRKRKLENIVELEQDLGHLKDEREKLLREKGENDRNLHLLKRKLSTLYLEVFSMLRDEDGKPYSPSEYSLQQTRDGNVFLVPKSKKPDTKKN

[24] = target: T1, Nuclear factor erythroid 2-related factor 2 (Rattus norvegicus); assay: Activation of Nrf2 pathway in rat PC-12 cells assessed as increase in NQO1 level at 2.5 to 10 uM measured after 3 hrs by Western blot analysis; format: cell-based; details: filed as activator, dose 2.5-10 µM
Rattus norvegicus [25] = assay: Neuroprotective activity in Sprague-Dawley rat model of middle cerebral artery occlusion-induced ischemia-reperfusion injury assessed as attenuation of behavioral deficit at 30 mg/kg, ip preincubated for 1 hrs followed by MCAO operation and further incubated with compound for 4 hrs after reperfusion; format: functional; details: time 5 hrs
[26] = Acute toxicity in ip dosed BALB/c mouse assessed as lethal dose measured after 7 days; format: organism-based; details: in vivo, time 7 day
[27] = target: T1, Nuclear factor erythroid 2-related factor 2 (Rattus norvegicus); assay: Activation of Nrf2 pathway in rat PC-12 cells assessed as decrease in Nrf2 accumulation in cytoplasm at 0.5 to 10 uM measured after 3 hrs by Western blot analysis; format: cell-based; details: filed as activator, dose 0.5-10 µM

Cc1cc(C)cc(-n2nc(-c3ccc(C(F)(F)F)cc3O)nc2-c2ccccc2O)c1
Activity (PC-12 [1]): 101.59% | remaining at 1 h, 200 µM [2]: 90.7% | remaining at 1.5 h, 200 µM [3]: 89.5% | remaining at 2 h, 200 µM [4]: 88.9% | Activity [5]: Non-Toxic | Tmax [6]: 2 h | AUC(0-inf) [7]: 10200 ng·h/mL | bioavailability [8]: 28.8% | half-life [9]: 12.8 h | half-life [10]: 8.26 h | CL [11]: 0.0017 (mg/kg)/(ng/ml)/hr | CL [12]: 0.0005 (mg/kg)/(ng/ml)/hr | Activity (Rattus norvegicus [13]): 1.87 | Activity (Rattus norvegicus [14]): 1.6 | Activity (Rattus norvegicus [15]): 16.37% | Activity (Rattus norvegicus [16]): 14.49% | Activity (Rattus norvegicus [17]): 12.23% | Activity (Rattus norvegicus [18]): Active | Activity (PC-12 [19]): Active | Activity (PC-12 [20]): Active | Activity (PC-12 [21]): Active | Activity (PC-12 [22]): Active | Activity [23]: Dde | Activity [24]: Active | Activity (Rattus norvegicus [25]): 1.5 | LD50 at 168 h [26]: 789 mg/kg | Activity [27]: Active
